Consider eleven compounds from ChEMBL document CHEMBL1201862, “PubChem BioAssay data set” (2004).

SMILES strings stand for the structures.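 Five concentrations, 48 hours, 96-well plates. GI50 = concentration required for 50% inhibition of growth.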 Activity calls are given as the source filed them. Cut-off read from the data, not from the text of the source: active = GI50 up to about 1.1 µM and inactive = higher. Where only a bound is given, the exact number is not on record here.

Holding throughout (test): inhibition of tumour cell growth, NCI panel, 48 h
The subject of assay [1] is ACHN.
The test system of assay [2] is CCRF-CEM.
The test system of assay [3] is HT-29.
The test system of assay [4] is IGROV-1.
The subject of assay [5] is KM12.
The test system of assay [6] is M14.
Assay [7] relates to MOLT-4.
The test system of assay [8] is Malme-3M.
In assay [9] the test system is NCI-H460.
Assay [10] relates to OVCAR-8.
Assay [11] relates to PC-3.
Assay [12] has as its system RPMI-8226.
In assay [13] the test system is RXF 393.
The subject of assay [14] is SK-MEL-2.
The test system of assay [15] is SK-OV-3.
Assay [16] concerns SR.
Assay [17] concerns SW-620.
Assay [18] concerns TK-10.
In assay [19] the test system is UO-31.
The test system of assay [20] is 786-0.

For the compound `CCOC(=O)c1sc2nc(SC)nc3c2c1NC(=O)CN3c1ccc(F)cc1`, the GI50 is 21.6 µM (inactive) in [1]; 30.1 µM (inactive) in assay [2]; 44.6 µM (inactive) in assay [3]; > 100 µM (inactive) in [4]; > 100 µM (inactive) in [5]; 37.9 µM (inactive) in assay [6]. The GI50 in [7] was > 100 µM (inactive); in [8], 48.4 µM (inactive); in assay [9] it was > 100 µM (inactive); in assay [10], 22.1 µM (inactive); in [11], 16.6 µM (inactive); in assay [12], 65.9 µM (inactive). Besides, the GI50 in [13] was 18.8 µM (inactive); in assay [14] it was 54.3 µM (inactive); in assay [15], 25 µM (inactive); in assay [16], > 100 µM (inactive); in [17], 38.5 µM (inactive); in assay [18], 30.7 µM (inactive). Further, the GI50 in [19] is 18 µM (inactive).

Regarding `CO/C(C)=N/CCC1=CCCCC1`, the GI50 in assay [20], in [1], in assay [3], in assay [4], in assay [5] and in assay [6] was > 100 µM (inactive) each time. Also, the GI50 in assay [7], in assay [8], in assay [9], in assay [10], in assay [11] and in assay [12] was > 100 µM (inactive) throughout. For the same compound, the GI50 is > 100 µM (inactive) in assay [13]; > 100 µM (inactive) in [14]; > 100 µM (inactive) in assay [15]; 0.104 µM (active) in assay [16]; > 100 µM (inactive) in assay [17]; > 100 µM (inactive) in [18]. The GI50 in assay [19] is > 100 µM (inactive).

Consider `COc1cccc(-c2cc(O)c3cccnc3n2)c1`, for which the GI50 was 0.165 µM (active) in [20]; 0.179 µM (active) in [1]; 0.0603 µM (active) in [2]; 0.0543 µM (active) in assay [3]; 0.432 µM (active) in assay [4]; 0.0581 µM (active) in [5]. Moreover, the GI50 in assay [6] was 0.0575 µM (active); in assay [7], 0.221 µM (active); in assay [8], > 100 µM (inactive); in assay [9], 0.1 µM (active); in assay [10] it was 0.235 µM (active); in assay [11], 0.158 µM (active). In addition, the GI50 is 0.195 µM (active) in [12]; 0.229 µM (active) in assay [13]; > 100 µM (inactive) in assay [14]; 0.0614 µM (active) in [16]; 0.0809 µM (active) in [17]; > 100 µM (inactive) in [18]. Also, the GI50 in [19] was 12.3 µM (inactive).

Take `Cc1ccc2c(c1)Nc1ccccc1P2(=O)O`: the GI50 in assay [20], in assay [1], in assay [2], in assay [3], in assay [4] and in [5] was > 100 µM (inactive) in each case. Further, the GI50 in [6], in assay [7], in assay [8], in assay [9], in [10] and in assay [11] was > 100 µM (inactive) in each case. Further, the GI50 in assay [13], in [14], in [15], in [16], in assay [17] and in [18] was > 100 µM (inactive) each time. For the same compound, in [19], the GI50 is > 100 µM (inactive).

In the case of `COc1cc([C@@]23OC[C@@H]4[C@@H](OC[C@@H]42)c2cc4c(cc23)OCO4)cc(OC)c1OC`, the GI50 in assay [20] was < 0.01 µM (active); in assay [1], < 0.0127 µM (active); in [2] it was < 0.01 µM (active); in [3] it was < 0.01 µM (active); in [4], < 0.01 µM (active); in assay [5] it was < 0.01 µM (active). The GI50 in [6] is < 0.01 µM (active); in assay [7] it was < 0.01 µM (active); in [8], 0.0838 µM (active); in assay [9], < 0.01 µM (active); in assay [10], < 0.01 µM (active); in [11], < 0.01 µM (active). Also, the GI50 in assay [13] was 0.873 µM (active); in assay [14] it was < 0.01 µM (active); in assay [15] it was < 0.01 µM (active); in [16], < 0.01 µM (active); in assay [17], < 0.01 µM (active); in assay [19], < 0.01 µM (active).

As to `CCC(C)NC1=NCC(C)S1` (stereo not given), the GI50 in assay [1], in assay [2], in assay [3], in [4], in [5] and in [6] was > 100 µM (inactive) in each case. Besides, the GI50 in assay [7] was > 100 µM (inactive); in assay [8] it was > 100 µM (inactive); in assay [9], > 100 µM (inactive); in assay [11] it was > 100 µM (inactive); in [12], > 100 µM (inactive); in [13], 28.3 µM (inactive). Further, the GI50 in assay [14], in assay [15], in [16], in assay [17] and in assay [19] was > 100 µM (inactive) in each case.

Consider `O=C(Nc1ccc2c(c1)oc(=O)c1ccccc12)C(Cl)Cl`, for which the GI50 in assay [20] is > 100 µM (inactive); in assay [1], > 100 µM (inactive); in [2], > 100 µM (inactive); in [3], 28.1 µM (inactive); in [4], > 100 µM (inactive); in [5] it was 33.2 µM (inactive). Also, the GI50 was > 100 µM (inactive) in [6]; 54.7 µM (inactive) in [7]; > 100 µM (inactive) in assay [8]; 27.6 µM (inactive) in [9]; > 100 µM (inactive) in assay [10]; 76.4 µM (inactive) in [11]. Besides, the GI50 is 14.3 µM (inactive) in assay [12]; > 100 µM (inactive) in assay [13]; > 100 µM (inactive) in assay [14]; 45 µM (inactive) in assay [16]; > 100 µM (inactive) in [17]; > 100 µM (inactive) in assay [19].

As to `CO/C(=N\N=C(/c1ccccc1)C(F)(F)F)c1ccncc1`, the GI50 was 17.4 µM (inactive) in assay [2]; 42.8 µM (inactive) in assay [3]; 63.2 µM (inactive) in assay [4]; 43.7 µM (inactive) in [5]; 52.6 µM (inactive) in assay [6]; 19.1 µM (inactive) in assay [7]. Besides, the GI50 is 72.8 µM (inactive) in assay [8]; 35.8 µM (inactive) in [9]; 69.5 µM (inactive) in assay [10]; 26.1 µM (inactive) in assay [11]; 27.6 µM (inactive) in assay [12]; 16.3 µM (inactive) in assay [13]. Besides, the GI50 was 25 µM (inactive) in assay [14], 46.3 µM (inactive) in [15], 54.6 µM (inactive) in assay [16] and 38.6 µM (inactive) in assay [19].

For the compound `COc1cc2c(cc1OC)CC1c3cc(OC)c(OC)cc3CCN1CC2` (stereo not given), the GI50 in [20] was > 100 µM (inactive); in assay [1], 1.64 µM (inactive); in assay [2], > 100 µM (inactive); in [3] it was 27.5 µM (inactive); in assay [4], 52.8 µM (inactive); in assay [5], > 100 µM (inactive). Further, the GI50 in assay [6] was > 100 µM (inactive); in [7] it was > 100 µM (inactive); in assay [9], 17.5 µM (inactive); in assay [10], 95.5 µM (inactive); in assay [11] it was > 100 µM (inactive); in assay [12], 41.8 µM (inactive). Also, the GI50 in assay [13] is 83.6 µM (inactive); in assay [14], > 100 µM (inactive); in [15], > 100 µM (inactive); in [16] it was > 100 µM (inactive); in assay [17] it was 84.1 µM (inactive); in assay [18], > 100 µM (inactive). The GI50 in [19] was 0.199 µM (active).

Turning to `ClC1=C(Cc2ccccc2)Cc2ccc3c(c21)CCC3`, the GI50 was 30.4 µM (inactive) in [20]; 29.9 µM (inactive) in assay [1]; 27.9 µM (inactive) in [2]; 22.6 µM (inactive) in assay [3]; 41.9 µM (inactive) in assay [4]; 18.3 µM (inactive) in assay [5]. Also, the GI50 in assay [6] was > 100 µM (inactive); in assay [7], 19.1 µM (inactive); in assay [8] it was 24.2 µM (inactive); in assay [10] it was 36.8 µM (inactive); in assay [11] it was 32.3 µM (inactive); in assay [12] it was 29.4 µM (inactive). In addition, the GI50 in assay [13] was 19.7 µM (inactive); in [15], 83.6 µM (inactive); in assay [16], 18.3 µM (inactive); in assay [17], 25.7 µM (inactive); in [18], 72.3 µM (inactive); in [19], 21.8 µM (inactive).

Take `CNC(=O)OCC1C2=C(C(=O)C(C)=C(N)C2=O)N2CC3C(N3C)C12OC` (stereo not given): the GI50 in assay [20] is 4.02 µM (inactive); in [1] it was 3.8 µM (inactive); in assay [2], 3.76 µM (inactive); in [3], 10.3 µM (inactive); in [4], 12.4 µM (inactive); in [6], 7.24 µM (inactive). The GI50 in [7] is 3.29 µM (inactive); in assay [8], 2.38 µM (inactive); in [9] it was 0.0867 µM (active); in assay [10], 11.4 µM (inactive); in [11], 13.9 µM (inactive); in [12], 23.8 µM (inactive). In addition, the GI50 in [13] is 21.3 µM (inactive); in [14] it was 26.1 µM (inactive); in assay [15] it was 28.9 µM (inactive); in assay [16], 0.867 µM (active); in assay [17], 10.8 µM (inactive); in [18], 27.7 µM (inactive).
